This is an account of results in US20230159538A1, “PYRROLIDINE-PYRAZOLES AS PYRUVATE KINASE ACTIVATORS” (Global Blood Therapeutics, Inc., priority 2020, published 2023).

The target in test [1] is T1, Pyruvate kinase M2 (PKM2) in H1299 cells (Homo sapiens, UniProt P14618).
T1 construct: endogenous in cells; host or cells: H1299
The test is described as follows: Cell based assay for activation of pyruvate kinase M2 in lung carcinoma cell line (NADH/LDH coupled assay on cell lysate). The settings on record: PKM2 cellular assay; for AC50: H1299 cells, 90 minutes with compound; for PKM2 % activation: maximal activation level relative to the activation level achieved by AG-348 @ 10 μM. On the procedure: Cell Based Assay for Activation of Pyruvate Kinase M2 in Lung Carcinoma Cell Line
H1299 cells were seeded in 96-well plates at 2,000 cells/well (100 uL). Treated plates were incubated overnight at 37° C. with 5% CO2. Compounds were diluted in complete media and added to cells in the presence of 1% DMSO. Cells were incubated with compound for 90 minutes at 37° C. and 5% CO2 before washing three times with PBS to remove residual compound and then lysed in lysis buffer (Cell Signaling). […] PKM2 activity was measured at steady state using a coupled enzyme activation system based on NADH consumption. PKM2 produces pyruvate and the coupled system uses lactate dehydrogenase (LDH) to reduce pyruvate to lactate with the concomitant oxidation of NADH to NAD^+. Conversion of NADH to NAD^+ was monitored using a SPECTROstar Nano plate reader (BMG Labtech) at a wavelength of 340 nm and subtraction of background absorbance measured at 750 nm. The change in NADH absorbance after PEP addition was monitored and slope obtained by subtracting baseline at 750 nm followed by least squares fitting to a simple linear regression model. A 10-point curve was generated to calculate the AC50 values by fitting the rates of NADH consumption against increasing concentration of compound.

Test [2] concerns the target T2, Human pyruvate kinase R (PKR) (Homo sapiens, UniProt P30613).
T2 construct: Human pyruvate kinase R (PKR), residues 14-574; 6x-His (N, cleaved yes); 8x-Arg (N, cleaved yes); SUMO (N, cleaved yes); host or cells: E. coli
The test is described as follows: Biochemical assay for activation of pyruvate kinase R (Kinase-Glo luminescence, ATP generation). The conditions noted are these: for AC50: 0.1 nM PKR, 2 mM FBP, 0.3 mM ADP, 0.1 mM PEP; for PKR % activation: maximal activation level relative to the activation level achieved by AG-348 @ 10 μM. In short, it runs like this: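 E. coli-expressed human PKR, freed of its His-Arg-SUMO tag and purified by anion exchange and size exclusion, was tested for activation. Read-out was luminescent measurement of ATP generation with Kinase-Glo reagent.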

T2 sequence (P30613 14-574): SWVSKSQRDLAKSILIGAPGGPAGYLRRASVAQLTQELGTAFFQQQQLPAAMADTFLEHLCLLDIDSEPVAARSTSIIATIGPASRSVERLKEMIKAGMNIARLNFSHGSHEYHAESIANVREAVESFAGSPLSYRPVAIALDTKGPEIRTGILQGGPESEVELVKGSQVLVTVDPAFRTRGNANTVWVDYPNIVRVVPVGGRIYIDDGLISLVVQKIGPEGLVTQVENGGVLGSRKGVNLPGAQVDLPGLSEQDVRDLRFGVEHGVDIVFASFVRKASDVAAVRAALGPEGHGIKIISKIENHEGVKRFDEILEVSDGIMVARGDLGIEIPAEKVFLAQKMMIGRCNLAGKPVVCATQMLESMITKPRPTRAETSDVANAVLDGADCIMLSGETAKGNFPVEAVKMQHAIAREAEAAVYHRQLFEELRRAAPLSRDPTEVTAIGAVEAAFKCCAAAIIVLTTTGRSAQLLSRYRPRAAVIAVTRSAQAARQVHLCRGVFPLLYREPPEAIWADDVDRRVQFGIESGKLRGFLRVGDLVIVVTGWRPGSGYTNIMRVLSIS
T1 sequence (P14618 2-531 limits assumed): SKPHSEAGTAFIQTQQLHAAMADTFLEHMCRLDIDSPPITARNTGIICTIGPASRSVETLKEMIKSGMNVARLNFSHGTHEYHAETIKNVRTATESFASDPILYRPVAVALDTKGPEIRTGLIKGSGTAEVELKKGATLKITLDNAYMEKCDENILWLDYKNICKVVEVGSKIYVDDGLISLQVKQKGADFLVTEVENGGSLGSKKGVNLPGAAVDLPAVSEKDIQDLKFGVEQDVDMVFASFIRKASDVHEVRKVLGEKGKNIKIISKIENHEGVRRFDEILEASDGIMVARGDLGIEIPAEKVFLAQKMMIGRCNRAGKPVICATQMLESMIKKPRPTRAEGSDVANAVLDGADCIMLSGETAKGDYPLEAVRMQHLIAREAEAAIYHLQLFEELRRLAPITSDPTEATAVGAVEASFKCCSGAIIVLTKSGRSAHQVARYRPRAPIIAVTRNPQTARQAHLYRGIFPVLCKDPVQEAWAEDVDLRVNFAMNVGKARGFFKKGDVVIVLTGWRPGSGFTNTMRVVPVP

With `NC(C(=O)N1Cc2cn(S(=O)(=O)c3ccc4ncsc4c3)nc2C1)c1cccc(C(F)(F)F)c1` (racemic) [Compound 26, 2-amino-1-[2-(1,3-benzothiazole-6-sulfonyl)-2H,4H,5H,6H-pyrrolo[3,4-c]pyrazol-5-yl]-2-[3-(trifluoromethyl)phenyl]ethan-1-one], the results for the AC50 in test [1] and in test [2] were 147 nM and 72 nM, respectively.

As to `Cc1cc(C(N)C(=O)N2Cc3cn(S(=O)(=O)c4ccc5ncsc5c4)nc3C2)ccc1F` (racemic) [Compound 39, 2-amino-1-[2-(1,3-benzothiazole-6-sulfonyl)-2H,4H,5H,6H-pyrrolo[3,4-c]pyrazol-5-yl]-2-(4-fluoro-3-methylphenyl)ethan-1-one], the AC50 in test [1] was determined as 53 nM; in test [2], 41 nM.

For the molecule `O=C([C@@H](CO)c1ccccc1)N1Cc2cn(S(=O)(=O)c3ccc4ncsc4c3)nc2C1` (single isomer, unassigned) [Compound 1, (2R)-1-[2-(1,3-benzothiazole-6-sulfonyl)-2H,4H,5H,6H-pyrrolo[3,4-c]pyrazol-5-yl]-3-hydroxy-2-phenylpropan-1-one or (2S)-1-[2-(1,3-benzothiazole-6-sulfonyl)-2H,4H,5H,6H-pyrrolo[3,4-c]pyrazol-5-yl]-3-hydroxy-2-phenylpropan-1-one], in test [1], the AC50 came out at 33 nM and the PKM2 % activation was 133%. In test [2], this molecule registered an AC50 of 28 nM and a PKR % activation of 82%.

Turning to `C[C@@H](O)[C@H](C(=O)N1Cc2cn(S(=O)(=O)c3ccc4ncsc4c3)nc2C1)c1ccccc1` (single isomer, unassigned) [Compound 3], in test [1], the concentration at half-maximal activity (AC50) was 45 nM and the PKM2 % activation is reported as 101%. Besides, in test [2], half-maximal activity (AC50) was put at 44 nM and the PKR % activation is given as 104%.

Regarding `CC(O)C(C(=O)N1Cc2cn(S(=O)(=O)c3ccc4ncsc4c3)nc2C1)c1ccccc1` (single isomer, unassigned) [Compound 5], the AC50 in test [1] stood at 38 nM; in test [2], 82 nM.

With `O=C([C@@H](CO)c1ccccc1)N1Cc2cn(S(=O)(=O)c3ccc(OC(F)F)cc3)nc2C1` (single isomer, unassigned) [Compound 7, (2R)-1-{2-[4-(difluoromethoxy)benzenesulfonyl]-2H,4H,5H,6H-pyrrolo[3,4-c]pyrazol-5-yl}-3-hydroxy-2-phenylpropan-1-one, or (2S)-1-{2-[4-(difluoromethoxy)benzenesulfonyl]-2H,4H,5H,6H-pyrrolo[3,4-c]pyrazol-5-yl}-3-hydroxy-2-phenylpropan-1-one], in test [1], the AC50 was 22 nM and the PKM2 % activation is reported as 116%. In test [2], this molecule returned an AC50 of 76 nM and a PKR % activation of 137%.

As to `O=C(N1Cc2cn(S(=O)(=O)c3ccc4ncsc4c3)nc2C1)[C@]1(c2ccccn2)CCOC1` (single isomer, unassigned) [Compound 20, 6-({5-[(3S)-3-(pyridin-2-yl)oxolane-3-carbonyl]-2H,4H,5H,6H-pyrrolo[3,4-c]pyrazol-2-yl}sulfonyl)-1,3-benzothiazole or 6-({5-[(3R)-3-(pyridin-2-yl)oxolane-3-carbonyl]-2H,4H,5H,6H-pyrrolo[3,4-c]pyrazol-2-yl}sulfonyl)-1,3-benzothiazole], in test [1], the AC50 was 14 nM and the PKM2 % activation is recorded as 60%. In test [2], this molecule came in with an AC50 of 44 nM and a PKR % activation of 113%.

On to `O=C([C@@H](CO)c1ccccc1)N1Cc2cn(S(=O)(=O)c3ccc4c(c3)NCCO4)nc2C1` (single isomer, unassigned) [Compound 22, (2R)-1-[2-(3,4-dihydro-2H-1,4-benzoxazine-6-sulfonyl)-2H,4H,5H,6H-pyrrolo[3,4-c]pyrazol-5-yl]-3-hydroxy-2-phenylpropan-1-one or (2S)-1-[2-(3,4-dihydro-2H-1,4-benzoxazine-6-sulfonyl)-2H,4H,5H,6H-pyrrolo[3,4-c]pyrazol-5-yl]-3-hydroxy-2-phenylpropan-1-one], for which, in test [1], the AC50 came to 33 nM and the PKM2 % activation is on record as 79%. For the same molecule, in test [2], the AC50 is 50 nM and the PKR % activation was 99%.

Regarding `O=C([C@@H](CO)c1ccccc1)N1Cc2cn(S(=O)(=O)c3ccc4c(c3)OCCO4)nc2C1` (single isomer, unassigned) [Compound 25, (2R)-1-[2-(2,3-dihydro-1,4-benzodioxine-6-sulfonyl)-2H,4H,5H,6H-pyrrolo[3,4-c]pyrazol-5-yl]-3-hydroxy-2-phenylpropan-1-one or (2S)-1-[2-(2,3-dihydro-1,4-benzodioxine-6-sulfonyl)-2H,4H,5H,6H-pyrrolo[3,4-c]pyrazol-5-yl]-3-hydroxy-2-phenylpropan-1-one], in test [1], the AC50 amounted to 31 nM and the PKM2 % activation is listed as 42%. In test [2], this molecule gave a concentration at half-maximal activity (AC50) of 19 nM and a PKR % activation of 44%.

Regarding `Cc1cccc([C@@]2(C(=O)N3Cc4cn(S(=O)(=O)c5ccc6ncsc6c5)nc4C3)CCOC2)n1` (single isomer, unassigned) [Compound 35, 6-({5-[(3S)-3-(6-methylpyridin-2-yl)oxolane-3-carbonyl]-2H,4H,5H,6H-pyrrolo[3,4-c]pyrazol-2-yl}sulfonyl)-1,3-benzothiazole or 6-({5-[(3R)-3-(6-methylpyridin-2-yl)oxolane-3-carbonyl]-2H,4H,5H,6H-pyrrolo[3,4-c]pyrazol-2-yl}sulfonyl)-1,3-benzothiazole], in test [1], the AC50 worked out at 93 nM and the PKM2 % activation is on record as 89%. In test [2], the activity was half-maximal at 62 nM (AC50) and the PKR % activation amounted to 115%.

In test [2], `COc1ccc(S(=O)(=O)n2cc3c(n2)CN(C(=O)[C@H](CO)c2ccccc2F)C3)cc1` [Compound 88, (2S)-2-(2-fluorophenyl)-3-hydroxy-1-[2-(4-methoxybenzenesulfonyl)-2H,4H,5H,6H-pyrrolo[3,4-c]pyrazol-5-yl]propan-1-one] returned an AC50 of 3 nM.

In test [2], `Cn1ncc2ccc(S(=O)(=O)n3cc4c(n3)CN(C(=O)[C@H](CO)c3ccccc3)C4)cc21` [Compound 90, (2S)-3-hydroxy-1-{2-[(1-methyl-1H-indazol-6-yl)sulfonyl]-2H,4H,5H,6H-pyrrolo[3,4-c]pyrazol-5-yl}-2-phenylpropan-1-one] yielded an AC50 of 430 nM.

In turn, `O=C([C@H](CO)c1ccccc1)N1Cc2cn(S(=O)(=O)c3ccc4c(cnn4C(F)F)c3)nc2C1` [Compound 91, (2S)-1-(2-{[1-(difluoromethyl)-1H-indazol-5-yl]sulfonyl}-2H,4H,5H,6H-pyrrolo[3,4-c]pyrazol-5-yl)-3-hydroxy-2-phenylpropan-1-one] showed an AC50 in test [2] of 14 nM.

As to `O=C([C@H](CO)c1ccccc1)N1Cc2cn(S(=O)(=O)c3ccc4nccnc4c3)nc2C1` [Compound 94, (2S)-3-hydroxy-2-phenyl-1-[2-(quinoxaline-6-sulfonyl)-2H,4H,5H,6H-pyrrolo[3,4-c]pyrazol-5-yl]propan-1-one], the AC50 in test [2] came to 17 nM.

Regarding `O=C([C@H](CO)c1ccccc1)N1Cc2cn(S(=O)(=O)c3ccc(OC4COC4)nc3)nc2C1` [Compound 95, (2S)-3-hydroxy-1-(2-{[6-(oxetan-3-yloxy)pyridin-3-yl]sulfonyl}-2H,4H,5H,6H-pyrrolo[3,4-c]pyrazol-5-yl)-2-phenylpropan-1-one], the AC50 in test [2] came out at 7080 nM.

In the case of `CN1Cc2cc(S(=O)(=O)n3cc4c(n3)CN(C(=O)[C@H](CO)c3ccccc3)C4)ccc2OC1=O` [Compound 96, 6-({5-[(2S)-3-hydroxy-2-phenylpropanoyl]-2H,4H,5H,6H-pyrrolo[3,4-c]pyrazol-2-yl}sulfonyl)-3-methyl-3,4-dihydro-2H-1,3-benzoxazin-2-one], in test [2], the AC50 was 53 nM.

`O=C([C@H](CO)c1ccccc1)N1Cc2cn(S(=O)(=O)c3ccc(OC4CC4)nc3)nc2C1` [Compound 97, (2S)-1-{2-[(6-cyclopropoxypyridin-3-yl)sulfonyl]-2H,4H,5H,6H-pyrrolo[3,4-c]pyrazol-5-yl}-3-hydroxy-2-phenylpropan-1-one]: the AC50 in test [2] is > 10000 nM.

The molecule `O=C([C@H](CO)c1ccccc1)N1Cc2cn(S(=O)(=O)c3ccc(C4CC4)nc3)nc2C1` [Compound 101, (2S)-1-{2-[(6-cyclopropylpyridin-3-yl)sulfonyl]-2H,4H,5H,6H-pyrrolo[3,4-c]pyrazol-5-yl}-3-hydroxy-2-phenylpropan-1-one] yielded an AC50 in test [2] of 41 nM.

In test [2], `O=C([C@H](NCCO)c1ccccc1F)N1Cc2cn(S(=O)(=O)c3ccc4ncccc4c3)nc2C1` [Compound 106, (2R)-2-(2-fluorophenyl)-2-[(2-hydroxyethyl)amino]-1-[2-(quinoline-6-sulfonyl)-2H,4H,5H,6H-pyrrolo[3,4-c]pyrazol-5-yl]ethan-1-one] registered an AC50 of 44 nM.
